The target of the first assay is T1, GLUT1 (Homo sapiens, UniProt P11166).
T1 sequence (P11166 1-492): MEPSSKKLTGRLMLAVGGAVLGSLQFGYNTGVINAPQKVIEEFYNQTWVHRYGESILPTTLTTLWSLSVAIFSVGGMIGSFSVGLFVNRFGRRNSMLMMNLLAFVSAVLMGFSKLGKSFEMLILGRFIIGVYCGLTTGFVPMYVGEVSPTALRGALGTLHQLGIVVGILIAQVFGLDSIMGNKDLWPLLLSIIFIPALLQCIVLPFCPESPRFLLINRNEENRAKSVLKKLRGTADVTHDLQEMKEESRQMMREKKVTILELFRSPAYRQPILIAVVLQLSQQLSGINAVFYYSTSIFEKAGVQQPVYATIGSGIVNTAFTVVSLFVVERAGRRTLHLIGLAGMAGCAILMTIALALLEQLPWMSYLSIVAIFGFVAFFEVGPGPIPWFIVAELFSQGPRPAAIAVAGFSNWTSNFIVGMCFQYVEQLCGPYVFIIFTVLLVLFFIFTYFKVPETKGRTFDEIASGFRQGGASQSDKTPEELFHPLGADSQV
Assay: not given
The settings on record: substrates and inhibitors of GLUT1; cited from earlier work.
On to `O=C1O[C@H]([C@@H](O)CO)C(=O)C1=O` [Dehydroascorbic Acid], for which the “Reported Affinity for GLUT1” value is on record as 0.8 mM.

As for `O=C[C@H](O)[C@@H](O)[C@@H](O)[C@H](O)CO` [Galactose], the “Reported Affinity for GLUT1” value is recorded as 4 mM.

Regarding `N[C@H]1C(O)O[C@H](CO)[C@@H](O)[C@@H]1O` (stereo partly shown) [Glucosamine], the “Reported Affinity for GLUT1” value is 9 mM.

For `O=C(CCc1ccc(O)cc1)c1c(O)cc(O)cc1O` [Phloretin], the “Reported Affinity for GLUT1” value is recorded as 0.05 mM.

For “(S)-methoxy-a-methyl-2-napthalene acetic acid amido galacto pyranose”, the “Reported Affinity for GLUT1” value was 1 mM.

Regarding Fluorodeoxyglucose, the “Reported Affinity for GLUT1” value is 4 mM.

The next assay deals with T1, GLUT1. Description: Uptake of 3H-glucose by GLUT1 expressed in Xenopus oocytes. The settings on record: Xenopus oocytes injected with GLUT1 cRNA. Type of assay: cell-based. More on the design: expressed in transfected cells; host or cells: Xenopus oocytes (defolliculated), injected with in vitro transcribed GLUT1 cRNA. The method, then: To assess transport function of a specific transporter protein, it can be desirable to clone the cDNA and express the protein in cells that have low endogenous transport activity. Human GLUT1 was cloned by PCR, fully sequenced, and subcloned into plasmids that can be used for expression in mammalian cells or Xenopus oocytes. […] For expression in Xenopus oocytes, in vitro GLUT1 cRNA was prepared and injected into defoliculated oocytes. […]
`O=C[C@H](O)[C@@H](O)[C@H](O)[C@H](O)CO` [^3H-glucose]: the “3H-glucose uptake versus noninjected controls” value was “higher levels”.
